Consider 26 molecules from patent publication US10689377B2 (Mirati Therapeutics, Inc., priority 2017, dated 2020).

SMILES strings stand for the structures.

Chain of KRas G12C (P01116 1-188 isoform P01116-2 G12C): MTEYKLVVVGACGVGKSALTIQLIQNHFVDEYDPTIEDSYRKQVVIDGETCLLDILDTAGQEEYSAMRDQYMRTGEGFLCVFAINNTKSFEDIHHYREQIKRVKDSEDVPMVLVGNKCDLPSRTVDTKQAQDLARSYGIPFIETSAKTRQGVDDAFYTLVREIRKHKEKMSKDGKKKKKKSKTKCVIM

This assay addresses KRas G12C (Homo sapiens, UniProt P01116, G12C). The experiment in a line: Cellular inhibition of KRas G12C measured by Phospho-ERK in NCI-H358 cells. In kind it is cell-based. The note with it: pERK(Thr202/Tyr204) normalized with GAPDH, NCI-H358 cells, 3 hours; read-out: IC50. In outline:
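Ratio of phospho-ERK(Thr202/Tyr204) to GAPDH, read by near-infrared secondary antibodies on fixed, permeabilised NCI-H358 cells, expressed relative to DMSO control. Compound exposure was 3 h at 0.5% DMSO. IC50 values come from 4-parameter curve fits.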
In the case of `C=C(F)C(=O)N1CCN(c2nc(OC[C@@H]3CCCN3C)nc3c2CCN(c2cccc4cccc(CC)c24)C3)C[C@@H]1CC#N` [Example 608, 2-[(2S)-4-[7-(8-ethyl-1-naphthyl)-2-[[(2S)-1-methylpyrrolidin-2-yl]methoxy]-6,8-dihydro-5H-pyrido[3,4-d]pyrimidin-4-yl]-1-(2-fluoroprop-2-enoyl)piperazin-2-yl]acetonitrile], the IC50 fell in the range of 0.1 to 1000 nM.

In the case of `C=CC(=O)N1CCN(c2nc(OCCN3CCC(F)C3)nc3c2CCN(c2cc(O)cc4ccccc24)C3)CC1` (centres unmarked) [Example 49, 1-(4-(2-(2-(3-fluoropyrrolidin-1-yl)ethoxy)-7-(3-hydroxynaphthalen-1-yl)-5,6,7,8-tetrahydropyrido[3,4-d]pyrimidin-4-yl)piperazin-1-yl)prop-2-en-1-one], the IC50 is greater than 1000 nM.

Take `C=CC(=O)N1CCN(c2nc(OC[C@@H]3CCCN3C)nc3c2CCN(c2cnccc2OC)C3)C[C@@H]1CC#N` [Example 340, 2-((S)-1-acryloyl-4-(7-(4-methoxypyridin-3-yl)-2-(((S)-1-methylpyrrolidin-2-yl)methoxy)-5,6,7,8-tetrahydropyrido[3,4-d]pyrimidin-4-yl)piperazin-2-yl)acetonitrile]: the IC50 was greater than 1000 nM.

On to `C=CC(=O)N1CCN(c2nc(OC[C@@H]3CCN(C)C3)nc3c2CCN(c2cccc4cccc(Cl)c24)C3)C[C@@H]1CC#N` [Example 361, 2-[(2S)-4-[7-(8-chloro-1-naphthyl)-2-[[(3R)-1-methylpyrrolidin-3-yl]methoxy]-6,8-dihydro-5H-pyrido[3,4-d]pyrimidin-4-yl]-1-prop-2-enoyl-piperazin-2-yl]acetonitrile], for which the IC50 lay within 0.1 to 1000 nM.

For the molecule `C=CC(=O)N1CCN(c2nc(OC[C@@H]3[C@@H](O)CCN3C)nc3c2CCN(c2cccc4ccccc24)C3)C[C@@H]1CC#N` [Example 390, 2-((S)-1-acryloyl-4-(2-(((2R,3S)-3-hydroxy-1-methylpyrrolidin-2-yl)methoxy)-7-(naphthalen-1-yl)-5,6,7,8-tetrahydropyrido[3,4-d]pyrimidin-4-yl)piperazin-2-yl)acetonitrile], the IC50 was 0.1 to 1000 nM.

As to `C=CC(=O)N1CCN(c2nc(OCC3CN(C)CCN3)nc3c2CCN(c2cc(O)cc4ccccc24)C3)CC1` (centres unmarked) [Example 80, 1-(4-(7-(3-hydroxynaphthalen-1-yl)-2-((4-methylpiperazin-2-yl)methoxy)-5,6,7,8-tetrahydropyrido[3,4-d]pyrimidin-4-yl)piperazin-1-yl)prop-2-en-1-one], the IC50 is greater than 1000 nM.

For `C=CC(=O)N1CCN(c2nc(OC[C@@H]3CCCN3C)nc3c2CCN(c2c(F)cccc2C(F)(F)F)C3)CC1CC#N` (some centres unmarked) [Example 412], the IC50 lay within 0.1 to 1000 nM.

On to `Cc1cccc2cccc(N3CCc4c(nc(OC[C@@H]5CCCN5C)nc4N4CCN(C(=O)/C=C/c5ccccn5)[C@@H](CC#N)C4)C3)c12` [Example 493, 2-((S)-4-(7-(8-methylnaphthalen-1-yl)-2-(((S)-1-methylpyrrolidin-2-yl)methoxy)-5,6,7,8-tetrahydropyrido[3,4-d]pyrimidin-4-yl)-1-((E)-3-(pyridin-2-yl)acryloyl)piperazin-2-yl)acetonitrile], for which the IC50 was 0.1 to 1000 nM.

For the molecule `COC/C=C/C(=O)N1CCN(c2nc(OC[C@@H]3CCCN3C)nc3c2CCN(c2cccc(C)c2C)C3)C[C@@H]1CC#N` [Example 489, 2-((S)-4-(7-(2,3-dimethylphenyl)-2-(((S)-1-methylpyrrolidin-2-yl)methoxy)-5,6,7,8-tetrahydropyrido[3,4-d]pyrimidin-4-yl)-1-((E)-4-methoxybut-2-enoyl)piperazin-2-yl)acetonitrile], the half-maximal inhibitory concentration (IC50) is 0.1 to 1000 nM.

In the case of `C=CC(=O)N1CCN(c2nc(OC[C@@H]3CCCN3C)nc3c2CCN(c2cc(OC)cc4ccccc24)C3)C[C@@H]1CC#N` [Example 314, 2-[(2S)-4-[7-(3-methoxy-1-naphthyl)-2-[[(2S)-1-methylpyrrolidin-2-yl]methoxy]-6,8-dihydro-5H-pyrido[3,4-d]pyrimidin-4-yl]-1-prop-2-enoyl-piperazin-2-yl]acetonitrile], the IC50 was in the range of 0.1 to 1000 nM.

As to `C=CC(=O)N1CCN(c2nc(O[C@H](C)CN(C)C)nc3c2CCN(c2c(C)cccc2O)C3)CC1` [Example 95, (R)-1-(4-(2-((1-(dimethylamino)propan-2-yl)oxy)-7-(2-hydroxy-6-methylphenyl)-5,6,7,8-tetrahydropyrido[3,4-d]pyrimidin-4-yl)piperazin-1-yl)prop-2-en-1-one], the IC50 is greater than 1000 nM.

Consider `C=CC(=O)N1CCN(c2nc(OCCCN3CCOCC3)nc3c2CCN(c2c(C)ccc4[nH]ccc24)C3)CC1` [Example 209, 1-(4-(7-(5-methyl-1H-indol-4-yl)-2-(3-morpholinopropoxy)-5,6,7,8-tetrahydropyrido[3,4-d]pyrimidin-4-yl)piperazin-1-yl)prop-2-en-1-one], for which the IC50 was greater than 1000 nM.

For the molecule `C=CC(=O)N1CCN(c2nc(OC[C@@H]3CCCN3C)nc3c2CCN(c2cncc(F)c2C(F)(F)F)C3)C[C@@H]1CC#N` [Example 383, 2-((S)-1-acryloyl-4-(7-(5-fluoro-4-(trifluoromethyl)pyridin-3-yl)-2-(((S)-1-methylpyrrolidin-2-yl)methoxy)-5,6,7,8-tetrahydropyrido[3,4-d]pyrimidin-4-yl)piperazin-2-yl)acetonitrile], the concentration for half-maximal inhibition (IC50) fell in the range of 0.1 to 1000 nM.

For the molecule `C=CC(=O)N1CCN(c2ncnc3c2CCN(c2c(O)cccc2F)C3)CC1` [Example 4, 1-(4-(7-(2-fluoro-6-hydroxyphenyl)-5,6,7,8-tetrahydropyrido[3,4-d]pyrimidin-4-yl)piperazin-1-yl)prop-2-en-1-one], the IC50 is greater than 1000 nM.

Turning to `C=CC(=O)N1CCN(c2nc(OC[C@H]3CN(C)CCO3)nc3c2CCN(c2cccc4ccccc24)C3)CC1CC#N` (stereo partly drawn) [Example 270, 2-(1-acryloyl-4-(2-(((R)-4-methylmorpholin-2-yl)methoxy)-7-(naphthalen-1-yl)-5,6,7,8-tetrahydropyrido[3,4-d]pyrimidin-4-yl)piperazin-2-yl)acetonitrile], the IC50 is 0.1 to 1000 nM.

Consider `C=CC(=O)N1CCN(c2nc(OC[C@H]3CN(C)CCO3)nc3c2CCN(c2cccc4ccccc24)C3)C[C@@H]1CC#N` [Example 450, 2-((S)-1-Acryloyl-4-(2-(((R)-4-methylmorpholin-2-yl)methoxy)-7-(naphthalen-1-yl)-5,6,7,8-tetrahydropyrido[3,4-d]pyrimidin-4-yl)piperazin-2-yl)acetonitrile], for which the IC50 lay within 0.1 to 1000 nM.

Consider `C=CC(=O)N1CCN(c2nc(OC[C@@H]3CCCN3C)nc3c2CCN(c2cccc(F)c2C(F)(F)F)C3)C[C@@H]1CC#N` [Example 328], for which the half-maximal inhibitory concentration (IC50) was 0.1 to 1000 nM.

`C=CC(=O)N1CCN(c2nc(OCCCN3C[C@H]4C[C@@H]3CO4)nc3c2CCN(c2cc(O)cc4ccccc24)C3)CC1` [Example 185, 1-(4-(2-(3-((1R,4R)-2-oxa-5-azabicyclo[2.2.1]heptan-5-yl)propoxy)-7-(3-hydroxynaphthalen-1-yl)-5,6,7,8-tetrahydropyrido[3,4-d]pyrimidin-4-yl)piperazin-1-yl)prop-2-en-1-one]: the IC50 lay in the range of 0.1 to 1000 nM.

`C=CC(=O)N1CCN(c2nc(OC[C@@H]3CCCN3CC)nc3c2CCN(c2cc(O)cc4ccccc24)C3)CC1` [Example 197, (S)-1-(4-(2-((1-ethylpyrrolidin-2-yl)methoxy)-7-(3-hydroxynaphthalen-1-yl)-5,6,7,8-tetrahydropyrido[3,4-d]pyrimidin-4-yl)piperazin-1-yl)prop-2-en-1-one]: the IC50 lay in the range of 0.1 to 1000 nM.

Turning to `C=C(F)C(=O)N1CCN(c2nc(OC[C@@H]3CCCN3C)nc3c2CCN(c2cncc4cccc(C)c24)C3)C[C@@H]1CC#N` [Example 619, 2-[(2S)-1-(2-fluoroprop-2-enoyl)-4-[7-(5-methyl-4-isoquinolyl)-2-[[(2S)-1-methylpyrrolidin-2-yl]methoxy]-6,8-dihydro-5H-pyrido[3,4-d]pyrimidin-4-yl]piperazin-2-yl]acetonitrile], the IC50 is 0.1 to 1000 nM.

As to `C=CC(=O)N1CCN(c2nc(OC[C@@H]3CCN(C)C3)nc3c2CCN(c2cc(O)cc4ccccc24)C3)CC1CC#N` (stereo partly drawn) [Example 179, 2-[4-[7-(3-hydroxy-1-naphthyl)-2-[[(3R)-1-methylpyrrolidin-3-yl]methoxy]-6,8-dihydro-5H-pyrido[3,4-d]pyrimidin-4-yl]-1-prop-2-enoyl-piperazin-2-yl]acetonitrile], the IC50 fell in the range of 0.1 to 1000 nM.

Regarding `C=CC(=O)N1CCN(c2nc(O[C@H](C)CN(C)C)nc3c2CCN(c2c(C)ccc(F)c2O)C3)CC1` [Example 87, (R)-1-(4-(2-((1-(dimethylamino)propan-2-yl)oxy)-7-(3-fluoro-2-hydroxy-6-methylphenyl)-5,6,7,8-tetrahydropyrido[3,4-d]pyrimidin-4-yl)piperazin-1-yl)prop-2-en-1-one], the IC50 was greater than 1000 nM.

For the molecule `C=CC(=O)N1CCN(c2nc(OC[C@@H]3CCCN3C)nc3c2CCN(c2ccccc2C(F)F)C3)CC1CC#N` (some centres unmarked) [Example 449], the IC50 was in the range of 0.1 to 1000 nM.

Regarding `C=CC(=O)N1CCN(c2nc(OC[C@@H]3CCCCN3C)nc3c2CCN(c2cccc4ccccc24)C3)C[C@@H]1CC#N` [Example 377, 2-((S)-1-acryloyl-4-(2-(((S)-1-methylpiperidin-2-yl)methoxy)-7-(naphthalen-1-yl)-5,6,7,8-tetrahydropyrido[3,4-d]pyrimidin-4-yl)piperazin-2-yl)acetonitrile], the IC50 lay in the range of 0.1 to 1000 nM.

As for `C/C=C/C(=O)N1CCN(c2nc(OC[C@@H]3CCCN3C)nc3c2CCN(c2cccc4ccccc24)C3)CC1CC#N` (stereo partly drawn) [Example 293, 2-[1-[(E)-but-2-enoyl]-4-[2-[[(2S)-1-methylpyrrolidin-2-yl]methoxy]-7-(1-naphthyl)-6,8-dihydro-5H-pyrido[3,4-d]pyrimidin-4-yl]piperazin-2-yl]acetonitrile], the IC50 was 0.1 to 1000 nM.

On to `C=CC(=O)N1CCN(c2nc(OC[C@H]3CCCN3C)nc3c2CCN(c2ccc(F)c4ccccc24)C3)C[C@@H]1CC#N` [Example 318, 2-[(2S)-4-[7-(4-fluoro-1-naphthyl)-2-[[(2R)-1-methylpyrrolidin-2-yl]methoxy]-6,8-dihydro-5H-pyrido[3,4-d]pyrimidin-4-yl]-1-prop-2-enoyl-piperazin-2-yl]acetonitrile], for which the IC50 lay in the range of 0.1 to 1000 nM.
